Reference: patent US20050250853A1, “Beta-tubulin inhibitors” (priority 1999, published 2005)
“Also recorded” adds a separate entry of the source. Where two headings read alike, the source gives them in different places. Marks after values point to notes of the source that are not given here.

How the values were obtained:
[1] = system: CHO 10001 cells (wild-type); assay: MTT cytotoxicity on wild-type CHO cells; type: cell-based, Chinese hamster; conditions: Cricetulus griseus, CHO10001, 120 h, read-out: IC50 CHO 10001
Experimental: (§1) Human breast carcinoma cell line, MDA-MB-231, was obtained from the American Type Culture Collection (ATCC HTB-26; Bethesda, Md.). MDA-MB-231 cells were grown in RPMI 1640 medium supplemented with 10% bovine calf serum (Hyclone, Road Logan, Utah). […] These cells were cultured in RPMI 1640 containing 10% fetal bovine serum. SK—N—SH human neuroblastoma cells, (ATCC HTB-11; Bethesda, Md.) were cultured in MEM medium supplemented with 2 mM L-glutamine, 1.5 g/liter sodium bicarbonate, 0.1 mM non-essential amino acids, 1 mM sodium pyruvate and 10% fetal bovine serum. Cells were cultured in a humidified atmosphere at 37° C. in 5% CO2.
(§2) Cytotoxicity was assessed using the MTT assay (3-(4,5-dimethylthiazol-2-yl)-2,5-diphenyltetrazolium bromide) as described by Carmichael et al. (12).
(§3) The cytotoxicity of 4-tBCEU, 4-iPCEU and 4-sBCEU in two CHO cell lines having differential sensitivity to antmicrotubule agents was evaluated. These cell lines are derived from parental CHO-10001 cells and express mutated tubulins.

MDA-MB-231 cells [2] = assay: cells; type: cell-based, human; conditions: for IC50: MTT assay, mean ± SD, read-out: IC50 (μM) MDA-MB-231
Experimental: (§4) Human breast carcinoma cell line, MDA-MB-231, was obtained from the American Type Culture Collection (ATCC HTB-26; Bethesda, Md.). MDA-MB-231 cells were grown in RPMI 1640 medium supplemented with 10% bovine calf serum (Hyclone, Road Logan, Utah). Wild-type Chinese Hamster Ovary cells (CHO-10001) (7), colchicine- and vinblastine-resistant (CHO-VV 3-2) (8) and taxol-resistant (CHO-TAX 5-6) cells (9) were generously provided by Dr. Fernando Cabral (University of Texas Medical School, Houston, Tex.). These cells were cultured in RPMI 1640 containing 10% fetal bovine serum. SK—N—SH human neuroblastoma cells, (ATCC HTB-11; Bethesda, Md.) were cultured in MEM medium supplemented with 2 mM L-glutamine, 1.5 g/liter sodium bicarbonate, 0.1 mM non-essential amino acids, 1 mM sodium pyruvate and 10% fetal bovine serum. Cells were cultured in a humidified atmosphere at 37° C. in 5% CO2.
as §2

CHO VV 3-2 cells = assay: MTT cytotoxicity on vinblastine- and colchicine-resistant CHO cells expressing mutated tubulin; type: cell-based, Chinese hamster; conditions: Cricetulus griseus, CHO-VV 3-2, 120 h, read-out: IC50 CHO VV 3-2
Experimental: as §1, §2, §3

β-tubulin [3] = assay: Separation of soluble and polymerized tubulins, Western blot of β-tubulin; type: cell-based, human; conditions: MDA-MB-231 cells, 30 μM, 24 h and 48 h; for formation of modified β-tubulin (second immunoreactive band of lower Mr): free tubulin fraction
Experimental: FIG. 2. Effects of CEU derivatives on microtubule depolymerization. Exponentially growing MDA-MB-231 cells were incubated in the absence or the presence of 30 μM of CEU derivatives including (A) 4-tBCEU, 4-iPCEU or 4-sBCEU for 24 and 48 h respectively; (B) 2-ECEU, 3-ECEU or 4-ECEU for 24 and 48 h; and (C) 4-tBEU, 4-iPEU, 4-sBEU, 4-tBCPU, CEU or 4-methoxyCEU for 48 h. Free tubulin and microtubule fractions were isolated and analyzed by Western blot. Data are representative of three different experiments.
Separation of soluble and polymerized tubulins from MDA-MB231 cells was carried out as described by Minotti et al. (14) with minor modifications. Briefly, after drug exposure, about 5×10^6 cells in 100-mm petri dishes were washed with PBS at 37° C. and harvested in 3 ml of PBS containing 0.4 μg/ml of taxol using a rubber policeman.
Cells were centrifuged and lysed using 250 μl of microtubule-stabilizing buffer (20 mM Tris-HCl, pH 6.8, 140 mM NaCl, 1 mM MgCl2, 2 mM EDTA, 0.5% Nonidet P-40 and 0.4 μg/ml taxol), and then transferred to 1.5 ml microcentrifuge tubes. Samples were centrifuged at 12,000×g for 10 min at 4° C. and the supernatants containing soluble tubulin were placed in separate microcentrifuge tubes containing 250 μl of 2× Laemmli sample buffer (15). Pellets containing the polymerized tubulin were resuspended in 250 μl of water, followed by two freeze/thawing cycles, and the addition of 250 μl of 2× Laemmli sample buffer. Samples were analyzed by SDS-PAGE and immunoassay was performed as described below.
Samples (1×10^5 cells) were analyzed by 10% SDS-PAGE using the Laemmli system (15). Membranes were then incubated with PBSMT (PBS, pH 7.4, 5% fat-free dry milk and 0.1% Tween-20) for 1 h at room temperature, and then with 1:500 monoclonal anti-β-tubulin (clone TUB 2.1, Sigma) or 1:400 anti (clone no. SDL.3D10, Sigma) for 1 h. […] Membranes were washed with PBSMT and incubated with 1:2500 peroxidase-conjugated anti-mouse immunoglobulin (Amersham Canada, Oakville, Canada) in PBSMT for 30 min. Detection of the immunoblot was carried out with the ECL Western blotting detection reagent kit (Amersham Canada, Oakville, Canada).

[4] = Kinetics of alkylation of 4-(4-nitrobenzyl)pyridine (colorimetric assay); type: physicochemical; conditions: 80° C., pH 4.3, absorbance at 570 nm, linear regression, mean ± SD
Experimental: The rate constant of alkylation (K′) of CEU derivatives and chlorambucil was evaluated by a […] assay as described by Bardos et al (13). Briefly, 1 ml of a 10% (v/v) solution of 4-(4-nitrobenzyl)pyridine in ethanol and 1 ml of 50 mM sodium acetate (pH 4.3) were added to an ethanol solution (95%) containing 400 nmol per ml of either chlorambucil or CEU and heated to 80° C. in a shaking water bath for 60, 90, 120 or 150 min. The reaction was stopped by cooling the mixtures on ice for 5 min. Then, 1.5 ml of 0.1 M KOH: ethanol (1:2, v/v) were added to the reaction mixture. Samples were vortexed for 12 sec and set aside for 2.5 min prior to reading the absorbance at 570 nm. The values were compared with those obtained using a blank sample containing all reagents except the alkylating agent.

CHO TAX 5-6 cells = assay: MTT cytotoxicity on taxol-resistant CHO cells expressing mutated tubulin; type: cell-based, Chinese hamster; conditions: Cricetulus griseus, CHO-TAX 5-6, 120 h, read-out: IC50 CHO TAX 5-6
Experimental: as §1, §2, §3

MDA-MB-231 cells [5] = assay: Cell cycle analysis by propidium iodide flow cytometry; type: cell-based, human; conditions: for speed of induction of cell cycle arrest in G2+M compared with 4-tBCEU: 30 μM, 24 or 48 h; for accumulation of cells in G2+M: CEU derivatives at 30 μM, 24 h, flow cytometry
Experimental: FIG. 1. Effect of CEU derivatives on cell cycle. Exponentially growing MDA-MB-231 cells were incubated in the absence or presence of 30 μM of either 4-tBCEU, 4-iPCEU or 4-sBCEU for 24 and 48 h, respectively, at 37° C. The cell cycle was evaluated using propidium iodide staining and flow cytometric analysis. Data are representative of three independent experiments.
Following incubation of MDA-MB-231 cells with 4-tBCEU, 4-iPCEU or 4-sBCEU, the cells were harvested, resuspended in 1 ml PBS and fixed by the addition of 2.4 ml of ice cold anhydrous ethanol. Then, 5×10^5 cells from each sample were centrifuged for 3 min at 1000×g. Cell pellets were resuspended in PBS containing 50 μg/ml of PI and 40 U/ml of ribonuclease A (Boehringer Mannheim, Laval, Calif.). Mixtures were incubated at room temperature for 30 min and cell cycle distribution was analyzed using an Epics Elite ESP flow cytometer (Coulter Corporation, Miami, Fla., USA).
The effect of CEU, namely 4-tBCEU, 4-PCEU and 4-sBCEU, on the cell cycle was analyzed. To this end, exponentially growing MDA-MB-231 cells were treated with 30 μM 4-tBCEU, 4-iPCEU or 4-sBCEU for 24 or 48 h followed by an evaluation of cell cycle distribution by flow cytometry using propidium iodide, a fluorescent DNA dye. […] Induction of mitosis blockage in prophase by CEU derivatives was confirmed by mitotic index analysis as described by Drouin (22).

βIII-tubulin = biological target: T1, βIII-tubulin (Homo sapiens, UniProt Q13509); assay: Alkylation of βIII-tubulin in SK-N-SH cells; type: cell-based
T1 construct: SK—N—SH cells, which express significant amounts of neuronal-specific βIII-tubulin; endogenous in cells; host or cells: SK-N-SH (ATCC HTB-11)
T1 sequence (Q13509 whole entry): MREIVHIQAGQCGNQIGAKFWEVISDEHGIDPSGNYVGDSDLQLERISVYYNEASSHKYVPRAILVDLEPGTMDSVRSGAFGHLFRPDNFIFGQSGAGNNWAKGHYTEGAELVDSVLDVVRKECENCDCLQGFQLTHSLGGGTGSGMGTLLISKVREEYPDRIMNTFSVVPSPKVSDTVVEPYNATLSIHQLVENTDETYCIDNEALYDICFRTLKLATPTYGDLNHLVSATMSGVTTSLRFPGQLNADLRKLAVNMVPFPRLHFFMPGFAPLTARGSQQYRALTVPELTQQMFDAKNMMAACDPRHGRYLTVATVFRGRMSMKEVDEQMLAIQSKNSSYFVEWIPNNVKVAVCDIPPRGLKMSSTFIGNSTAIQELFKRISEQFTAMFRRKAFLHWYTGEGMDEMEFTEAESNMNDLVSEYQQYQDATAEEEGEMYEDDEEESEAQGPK
T1 sequence (P68363 whole entry partner): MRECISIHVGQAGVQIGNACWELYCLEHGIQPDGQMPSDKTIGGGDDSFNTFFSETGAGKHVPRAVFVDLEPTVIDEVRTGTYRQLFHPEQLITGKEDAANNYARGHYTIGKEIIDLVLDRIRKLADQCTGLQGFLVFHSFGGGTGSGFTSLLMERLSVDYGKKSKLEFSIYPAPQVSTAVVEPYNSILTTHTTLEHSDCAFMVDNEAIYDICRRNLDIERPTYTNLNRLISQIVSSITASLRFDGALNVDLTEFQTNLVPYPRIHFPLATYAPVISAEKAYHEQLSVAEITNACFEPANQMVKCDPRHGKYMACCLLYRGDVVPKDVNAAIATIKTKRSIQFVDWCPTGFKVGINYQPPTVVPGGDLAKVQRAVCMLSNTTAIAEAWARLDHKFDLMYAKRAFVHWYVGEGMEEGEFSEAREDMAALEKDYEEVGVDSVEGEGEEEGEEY
Experimental: FIG. 7. Localization of the site of alkylation by CEU on β-tubulin. Exponentially growing SK—N—SH cells were incubated in the absence or the presence of 30 μM and 100 μM [urea-^14C]-4-tBCEU for 24 h and 48 h, respectively. Total protein extracts were separated electrophoretically on 10% polyacrylamide gels. […] Results are representative of two independent experiments.
as §4
Samples (1×10^5 cells) were analyzed by 10% SDS-PAGE using the Laemmli system (15). […]

β-tubulin [6] = assay: Protein alkylation by [urea-14C]-4-tBCEU in MDA-MB-231 cells (autoradiography, immunoblot, kinetics); type: cell-based, human
Experimental: FIG. 3. Protein alkylation induced by treatment with [urea-^14C]-4-tBCEU. (A) Post-nuclei protein extracts from MDA-MB-231 cells incubated with 30 or 100 μM of [urea-^14C]-4-tBCEU for 12 and 24 h. […] The protein extracts were analyzed by SDS-PAGE. […] Data are representative of four different experiments. The arrow points to β-tubulin.
FIG. 5. Kinetics of β-tubulin alkylation and microtubule disruption induced by [urea-^14C]-4-tBCEU. Exponentially growing MDA-MB231 cells were incubated with 30 μM [urea-^14C]-4-tBCEU for 0, 1, 4, 8, 12, 18, 24 and 48 h. (A) Free tubulin and microtubule fractions were isolated and analyzed by Western blotting; (B) [urea-^14C]-4-tBCEU-labeled proteins were visualized by autoradiography. Data are representative of three different experiments.
Cells (˜5×10^6) were incubated with 30 or 100 μM [^14C]-tBCEU for 12 or 24 h and then washed with PBS and harvested by scraping in lysis buffer (5 mM Hepes pH 7.4, 1 mM MgCl2, 10 mM KCl, 1 mM CaCl2, 1 mM PMSF, 1 mM benzamidine and 1 mM aprotinin). Cell lysates were homogenized using a tissue grinder and the final sucrose concentration of each sample was adjusted to 250 mM. Samples were centrifuged at 600×g for 10 min at 4° C. to isolate the post-nuclear supernatant. The pellets, containing nuclei and intact cells, were discarded and the post-nuclear supernatant was recentrifuged at 90,000 rpm using a Rotor TLA-100.1 in a Beckman TL-100 ultracentrifuge for 30 min to separate the cytosolic fraction (C) from the insoluble fraction (M) containing the membrane components and mitochondria. One volume of 2× Laemmli sample buffer was then added to the supernatant (C) and the pellet (M) was resuspended in 200 μl of Laemmli sample buffer. Samples were boiled for 5 min and kept at −20° C. until analysis.
Samples (1×10^5 cells) were analyzed by 10% SDS-PAGE using the Laemmli system (15). Membranes were then incubated with PBSMT (PBS, pH 7.4, 5% fat-free dry milk and 0.1% Tween-20) for 1 h at room temperature, and then with 1:500 monoclonal anti-β-tubulin (clone TUB 2.1, Sigma) or 1:400 anti (clone no. SDL.3D10, Sigma) for 1 h. […]

[7] = Homo sapiens, MDA-MB-231, concentration inhibiting 50% of cell growth
[8] = concentration inhibiting 50% of cell growth

Compound: CC(C)c1ccc(NC(=O)NCCCl)cc1 [Example 4-iPCEU, 4-iso-propyl[3-(2-chloroethyl)ureido]benzene]
- IC50 [1]: 4400 ± 200 nM
- cytotoxicity in words (active / inactive CEU) (MDA-MB-231 cells [2]): active
- IC50 (MDA-MB-231 cells [2]; [7]): 2 µM
- IC50 (MDA-MB-231 cells [2]; [8]): 2.2 ± 0.3 µM
- IC50 (CHO VV 3-2 cells): 7700 ± 400 nM
- microtubule depolymerization (β-tubulin [3]): complete microtubule depolymerization
- formation of modified β-tubulin (second immunoreactive band of lower Mr) (β-tubulin [3]): second immunoreactive band; also recorded: slighly faster than for 4-tBCEU
- K′ (constant of alkylation of 4-(4-nitrobenzyl)pyridine) [4]: 3.0 ± 0.1^a
- IC50 (CHO TAX 5-6 cells): 2000 ± 100 nM
- speed of induction of cell cycle arrest in G2+M compared with 4-tBCEU (MDA-MB-231 cells [5]): more rapidly
- accumulation of cells in G2+M (MDA-MB-231 cells [5]): significant accumulation of cells in the G2+M

Compound: CCC(C)c1ccc(NC(=O)NCCCl)cc1 (stereo not drawn) [Example 4-sBCEU, 4-sec-butyl[3-(2-chloroethyl)ureido]benzene]
- IC50 [1]: 5000 ± 200 nM
- cytotoxicity in words (active / inactive CEU) (MDA-MB-231 cells [2]): active
- IC50 (MDA-MB-231 cells [2]; [7]): 2 µM
- IC50 (MDA-MB-231 cells [2]; [8]): 2.3 ± 0.1 µM
- IC50 (CHO VV 3-2 cells): 8200 ± 400 nM
- microtubule depolymerization (β-tubulin [3]): complete microtubule depolymerization
- formation of modified β-tubulin (second immunoreactive band of lower Mr) (β-tubulin [3]): second immunoreactive band; also recorded: slighly faster than for 4-tBCEU
- K′ (constant of alkylation of 4-(4-nitrobenzyl)pyridine) [4]: 3.1 ± 0.3^a
- IC50 (CHO TAX 5-6 cells): 2100 ± 100 nM
- speed of induction of cell cycle arrest in G2+M compared with 4-tBCEU (MDA-MB-231 cells [5]): more rapidly
- accumulation of cells in G2+M (MDA-MB-231 cells [5]): significant accumulation of cells in the G2+M

Compound: CC(C)(C)c1ccc(N[14C](=O)NCCCl)cc1 [[urea-^14C]-4-tBCEU]
- alkylation of βIII-tubulin (βIII-tubulin; 30 and 100 μM, 24 h and 48 h, autoradiography): βIII-tubulin is not alkylated
- migration on SDS-PAGE of βIII-tubulin (βIII-tubulin; Western blot (FIG. 7A)): does not alter migration of the β-tubulin on SDS-PAGE
- incubation time at which modified β-tubulin appears (immunoblot) (β-tubulin [6]; 30 μM (FIG. 5A)): 12 h
- incubation time at which 14C-labeled modified β-tubulin appears (autoradiography) (β-tubulin [6]; 30 μM (FIG. 5B)): 1 to 4 h
- incubation time to complete microtubule disruption (β-tubulin [6]; 30 μM, Western blot (FIG. 5A)): 8 to 12 h
